In article PMC7869707 (European Journal of Medicinal Chemistry, 2021):

Legend:
VSV-G PsV = format: cell-based
SARS-CoV-2 PsV = assay: microbe, parasite or virus in culture; format: cell-based; details: for IC50: Severe acute respiratory syndrome coronavirus 2, 293T/ACE2, 48 h, read-out: IC50 (50% inhibitory concentration) against infection of 293T-ACE2 cells by SARS-CoV-2 PsV
293T-ACE2 cells = assay: Cytotoxicity assay; format: cell-based; details: MTT
Vero-E6 cells = assay: Cytotoxicity assay; format: cell-based; details: MTT
[1] = tested on: SARS-CoV-2 S protein mediated membrane fusion of Vero-E6 cells; format: cell-based
SARS-CoV-2 S2 subunit = SARS-CoV-2 S2 subunit (Severe acute respiratory syndrome coronavirus 2, UniProt P0DTC2); format: binding
[2] = target: SARS-CoV-2 S binding to the ACE2 receptor (Severe acute respiratory syndrome coronavirus 2, UniProt P0DTC2)
SARS-CoV-2 S-trimer = SARS-CoV-2 S-trimer (Severe acute respiratory syndrome coronavirus 2, UniProt P0DTC2); assay: biochemical; format: binding

C[C@@H]1O[C@@H](O[C@H]2[C@H](O[C@H]3CC[C@]4(C)[C@H]5CC=C6[C@@H]7CC(C)(C)CC[C@]7(C(=O)NCc7cccs7)CC[C@@]6(C)[C@]5(C)CC[C@H]4C3(C)C)O[C@H](CO)[C@@H](O[C@@H]3O[C@@H](C)[C@H](O)[C@@H](O)[C@H]3O)[C@@H]2O)[C@H](O)[C@H](O)[C@H]1O [Compound 12i, N-{3β-O-[2,4-di-O-(a-L-rhamnopyranosyl)-β-D-glucopyranosyl]-olean-12-en-28-oyl}-2-thiophenemethylamine]
Inhibition of VSV-G pseudoviral transduction (VSV-G PsV): no effect
IC50 (SARS-CoV-2 PsV): < 6 µM

C[C@@H]1O[C@@H](O[C@H]2[C@H](O[C@H]3CC[C@]4(C)[C@H]5CC=C6[C@@H]7CC(C)(C)CC[C@]7(C(=O)NCc7ccco7)CC[C@@]6(C)[C@]5(C)CC[C@H]4C3(C)C)O[C@H](CO)[C@@H](O[C@@H]3O[C@@H](C)[C@H](O)[C@@H](O)[C@H]3O)[C@@H]2O)[C@H](O)[C@H](O)[C@H]1O [Compound 12h, N-{3β-O-[2,4-di-O-(a-L-rhamnopyranosyl)-β-D-glucopyranosyl]-olean-12-en-28-oyl}-2-furyl-methylamin]
Potency against SARS-CoV-2 PsV (SARS-CoV-2 PsV): lacked potency

C[C@@H]1O[C@@H](O[C@H]2[C@H](O[C@H]3CC[C@]4(C)[C@H]5CC=C6[C@@H]7CC(C)(C)CC[C@]7(C(=O)NCc7ccccn7)CC[C@@]6(C)[C@]5(C)CC[C@H]4C3(C)C)O[C@H](CO)[C@@H](O[C@@H]3O[C@@H](C)[C@H](O)[C@@H](O)[C@H]3O)[C@@H]2O)[C@H](O)[C@H](O)[C@H]1O [Compound 12g, N-{3β-O-[2,4-di-O-(a-L-rhamnopyranosyl)-β-D-glucopyranosyl]-olean-12-en-28-oyl}-2-pyridinemethanamine]
Potency against SARS-CoV-2 PsV (SARS-CoV-2 PsV): loss of potency

COc1ccccc1NC(=O)[C@]12CCC(C)(C)C[C@H]1C1=CC[C@@H]3[C@@]4(C)CC[C@H](O[C@@H]5O[C@H](CO)[C@@H](O[C@@H]6O[C@@H](C)[C@H](O)[C@@H](O)[C@H]6O)[C@H](O)[C@H]5O[C@@H]5O[C@@H](C)[C@H](O)[C@@H](O)[C@H]5O)C(C)(C)[C@@H]4CC[C@@]3(C)[C@]1(C)CC2 [Compound 12b, N-{3β-O-[2,4-di-O-(a-L-rhamnopyranosyl)-β-D-glucopyranosyl]-olean-12-en-28-oyl}-2-methoxyaniline]
Inhibition of VSV-G pseudoviral transduction (VSV-G PsV): no effect
IC50 (SARS-CoV-2 PsV): < 6 µM

C[C@@H]1O[C@@H](O[C@H]2[C@H](O[C@H]3CC[C@]4(C)[C@H]5CC=C6[C@@H]7CC(C)(C)CC[C@]7(C(=O)NCc7ccccc7F)CC[C@@]6(C)[C@]5(C)CC[C@H]4C3(C)C)O[C@H](CO)[C@@H](O[C@@H]3O[C@@H](C)[C@H](O)[C@@H](O)[C@H]3O)[C@@H]2O)[C@H](O)[C@H](O)[C@H]1O [Compound 12k, N-{3β-O-[2,4-di-O-(a-L-rhamnopyranosyl)-β-D-glucopyranosyl]-olean-12-en-28-oyl}-2-fluorobenzylamine]
Inhibition of VSV-G pseudoviral transduction (VSV-G PsV): no effect
IC50 (SARS-CoV-2 PsV): < 6 µM

C[C@@H]1O[C@@H](O[C@H]2[C@H](O[C@H]3CC[C@]4(C)[C@H]5CC=C6[C@@H]7CC(C)(C)CC[C@]7(C(=O)OCc7ccccc7)CC[C@@]6(C)[C@]5(C)CC[C@H]4C3(C)C)O[C@H](CO)[C@@H](O[C@@H]3O[C@@H](C)[C@H](O)[C@@H](O)[C@H]3O)[C@@H]2O)[C@H](O)[C@H](O)[C@H]1O [Compound 2, 3β-O-[2,4-di-O-(α-L-rhamnopyranosyl)-β-D-glucopyranosyl]-olean-12-en-28-oic acid benzyl ester]
Cytotoxicity against 293T-ACE2 cells (293T-ACE2 cells): moderate cytotoxicity

C[C@@H]1O[C@@H](O[C@H]2[C@H](O[C@H]3CC[C@]4(C)[C@H]5CC=C6[C@@H]7CC(C)(C)CC[C@]7(C(=O)NCc7ccccc7)CC[C@@]6(C)[C@]5(C)CC[C@H]4C3(C)C)O[C@H](CO)[C@@H](O[C@@H]3O[C@@H](C)[C@H](O)[C@@H](O)[C@H]3O)[C@@H]2O)[C@H](O)[C@H](O)[C@H]1O [Compound 12f, N-{3β-O-[2,4-di-O-(a-L-rhamnopyranosyl)-β-D-glucopyranosyl]-olean-12-en-28-oyl}-benzylamine]
Cytotoxicity against Vero-E6 cells (Vero-E6 cells): negligible cytotoxicity
Inhibition of membrane fusion mediated by SARS-CoV-2 S protein [1]: remarkably inhibit
Fold higher affinity with S2 subunit in relation to S1 subunit (SARS-CoV-2 S2 subunit): more than 1000 fold
Inhibition of VSV-G pseudoviral transduction (VSV-G PsV): no inhibition
Effect on SARS-CoV-2 S binding to the ACE2 receptor [2]: no effect
Cytotoxicity against 293T-ACE2 cells (293T-ACE2 cells): negligible cytotoxicity
Kd (SARS-CoV-2 S-trimer): 0.94 µM
